Experimental data published in patent US3953501A, “Triiodoisophthalic acid monoamino acid amides” (Schering Aktiengesellschaft, priority 1972, dated 1976).
Several values for one entry are separate records, joined by “and”; a condition that tells them apart may be missing. Equal entries are not always repeated.

Assays:
Type in all cases: in vivo
rats [1] = test: Intracerebral compatibility according to Valzelli; details: methylglucamine salts, 200 mg. I/ml., dose evoking neurological symptoms (including convulsions and death) in 50% of animals, (1) = Iotalamat (H), (2) = compound
Description: (§1) All substances were tested as methylglucamine salts with 200 mg. I/ml. of solution. The intracerebral compatibility was determined on rats in accordance with Valzelli, Med. Exp. 11: 23-26 (1964).
(§2) As a measure of physiological compatibility, the ED50 was determined in each case, i.e., the dose at which an undesired array of neurological symptoms (including convulsions and death) is evoked in 50% of the animals.

rats [2] = test: Cisternal compatibility (injection into suboccipital cisterna); details: 0.008 - 0.200 ml./kg., methylglucamine salts, 200 mg. I/ml., neurological symptoms in 50% of animals, (1) = Iotalamat (H), (2) = compound
Description: as §1
In order to determine the cisternal compatibility, the test compounds were injected in varying doses (0.008 - 0.200 ml./kg.) by means of a Hamilton No. 710 syringe directly into the suboccipital cisterna of rats which were under a slight ether narcosis.
as §2

rats [3] = test: Cerebral compatibility (injection into left common carotid artery); details: 14.0 - 26.0 ml./kg., methylglucamine salts, 200 mg. I/ml., neurological symptoms in 50% of animals, (1) = Iotalamat (H), (2) = compound
Description: as §1
Cerebral compatibility was likewise determined on rats. In an operation under a slight ether narcosis, a catheter was affixed in the left common carotid artery; the distal end of the catheter, after having been passed through the lateral connective tissue of the neck, was fixed in the center of the back. Three hours later, the test compounds were cranially injected in varying doses (14.0 - 26.0 ml./kg.) into the artery.
as §2

Structure (SMILES) | ED50 intracerebral compatibility according to Valzelli (myelography) (rats [1]) | ED50 cisternal compatibility (myelography) (rats [2]) | ED50 cerebral compatibility (angiography) (rats [3]) [g I/kg]
CNC(=O)C(C)NC(=O)c1c(I)c(NC(C)=O)c(I)c(C(=O)O)c1I (racemic) [B, N-(3-Carboxy-5-acetamido-2,4,6-triiodobenzoyl)-DL-alanine Methylamide] | 66.30 mg. I/kg. | 16.7 mg. I/kg. | –
CNC(=O)C(CO)NC(=O)c1c(I)c(NC(=O)COC)c(I)c(C(=O)O)c1I (racemic) [F, N-(3-Carboxy-5-methoxyacetamido-2,4,6-triiodobenzoyl)-DL-serine Methylamide] | 81.32 mg. I/kg. | 22.8 mg. I/kg. | 3.78
CC(=O)Nc1c(I)c(C(=O)O)c(I)c(C(=O)NCC(N)=O)c1I [A, N-(3-Carboxy-5-acetamido-2,4,6-triiodobenzoyl)-glycine Amide] | 70.72 mg. I/kg. | 11.17 mg. I/kg. | –
CNC(=O)CNC(=O)c1c(I)c(NC(=O)COC)c(I)c(C(=O)O)c1I [C, N-(3-Carboxy-5-methoxyacetamido-2,4,6-triiodobenzoyl)-glycine Methylamide] | 53.97 mg. I/kg. | 20.04 mg. I/kg. | –
CNC(=O)c1c(I)c(NC(C)=O)c(I)c(C(=O)N(C)CC(=O)O)c1I [D, N-(3-Methylaminocarbonyl-5-acetamido-2,4,6-triiodobenzoyl)-sarcosine] | 76.21 mg. I/kg. | 11.93 mg. I/kg. | 3.99
CC(=O)Nc1c(I)c(C(N)=O)c(I)c(C(=O)NCC(=O)O)c1I [E, N-(3-Aminocarbonyl-5-acetamido-2,4,6-triiodobenzoyl)-glycine] | 69.84 mg. I/kg. | 14.42 mg. I/kg. | –
CNC(=O)CNC(=O)c1c(I)c(NC(=O)CO)c(I)c(C(=O)O)c1I [G, N-(3-Carboxy-5-hydroxyacetamido-2,4,6-triiodobenzoyl)-glycine Methylamide] | 62.62 mg. I/kg. | 11.8 mg. I/kg. | 3.55
CNC(=O)c1c(I)c(NC(C)=O)c(I)c(C(=O)O)c1I [H, 3-acetamido-5-methylcarbamoyl-2,4,6-triiodobenzoic acid, reference compound] | 59.83 mg. I/kg. and 56.59 mg. I/kg. and 60.86 mg. I/kg. and 61.92 mg. I/kg. and 61.28 mg. I/kg. | 10.56 mg. I/kg. and 11.8 mg. I/kg. and 9.8 mg. I/kg. and 10.9 mg. I/kg. and 10.07 mg. I/kg. and 10.30 mg. I/kg. | –
